Source: patent publication US10947213B1 (Merck Patent GmbH, priority 2015, dated 2021)
Where a name gives a salt, the structure may show the parent alone.

biological target: T1, TLR7/NFKb HEK cells (Homo sapiens, UniProt Q9NYK1); assay: HEK Cell Assay (TLR7/NFKb reporter, Steady-Glo luciferase readout); format: cell-based; conditions: 30 min compound preincubation, then R*48 agonist for 5 hours, read-out: Potency
T1 construct: expressed in transfected cells; host or cells: HEK cells (TLR7/NFKb reporter line)
T1 sequence (Q9NYK1 27-1049): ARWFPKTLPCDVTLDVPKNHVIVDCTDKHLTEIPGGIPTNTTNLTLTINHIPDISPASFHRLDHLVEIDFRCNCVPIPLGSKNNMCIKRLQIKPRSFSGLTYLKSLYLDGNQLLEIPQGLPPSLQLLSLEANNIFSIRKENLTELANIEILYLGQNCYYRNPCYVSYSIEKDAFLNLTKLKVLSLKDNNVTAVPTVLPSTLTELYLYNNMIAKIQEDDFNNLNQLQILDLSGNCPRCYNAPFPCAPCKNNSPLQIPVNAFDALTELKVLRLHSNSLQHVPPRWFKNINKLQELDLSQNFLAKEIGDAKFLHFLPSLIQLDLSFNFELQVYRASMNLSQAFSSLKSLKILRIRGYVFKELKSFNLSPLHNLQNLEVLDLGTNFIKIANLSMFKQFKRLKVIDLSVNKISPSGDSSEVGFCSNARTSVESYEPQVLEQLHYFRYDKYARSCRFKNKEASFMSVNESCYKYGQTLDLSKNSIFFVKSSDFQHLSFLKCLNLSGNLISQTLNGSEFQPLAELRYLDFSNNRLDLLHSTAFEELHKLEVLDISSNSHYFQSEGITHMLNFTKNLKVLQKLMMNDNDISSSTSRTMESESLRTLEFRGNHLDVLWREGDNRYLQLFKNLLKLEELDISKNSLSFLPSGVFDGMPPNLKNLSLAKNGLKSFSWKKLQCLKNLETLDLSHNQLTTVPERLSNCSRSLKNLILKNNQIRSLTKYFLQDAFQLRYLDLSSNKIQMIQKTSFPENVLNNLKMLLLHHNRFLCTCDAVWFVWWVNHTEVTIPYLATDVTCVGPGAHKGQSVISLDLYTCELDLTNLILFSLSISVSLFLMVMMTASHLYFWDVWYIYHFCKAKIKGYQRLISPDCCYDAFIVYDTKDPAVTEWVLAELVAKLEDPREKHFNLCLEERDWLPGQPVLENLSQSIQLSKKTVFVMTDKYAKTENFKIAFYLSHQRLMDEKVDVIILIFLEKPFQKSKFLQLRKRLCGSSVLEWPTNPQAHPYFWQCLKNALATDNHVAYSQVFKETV
Outline: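 Steady-Glo luminescence after 5 h stimulation with R*48 agonist, following 30 min compound preincubation. Assay run in HEK cells carrying a TLR7/NFKb luciferase reporter, plated at 5000 cells/well and grown 24 h at 37° C (10% CO2) before treatment.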

Row | SMILES | IC50
1 | C[C@H]1C[C@@H](NC(=O)CC2CCCN(C)C2)CN(c2ccc(C(F)(F)F)c3nccnc23)C1 (stereo partly drawn) [Compound 293, N-[(3R,5S)-5-methyl-1-[8-(trifluoromethyl)quinoxalin-5-yl]piperidin-3-yl]-2-(1-methylpiperidin-3-yl)acetamide] | < 1000 nM
2 | C[C@H]1C[C@@H](NC(=O)CC(O)C(C)(C)C)CN(c2ccc(C#N)c3nccnc23)C1 (single isomer, unassigned) [Compound 147] | < 1000 nM
3 | C[C@H]1C[C@@H](NC(=O)CC2(C)CCN(C)CC2)CN(c2ccc(C(F)(F)F)c3nccnc23)C1 [Compound 255, 2-(1,4-dimethylpiperidin-4-yl)-N-[(3R,5S)-5-methyl-1-[8-(trifluoromethyl)quinoxalin-5-yl]piperidin-3-yl]acetamide] | < 1000 nM
4 | C[C@H]1C[C@@H](NC(=O)CN2CC(O)C2)CN(c2ccc(C(F)F)c3nccnc23)C1 [Compound 320, N-[(3R,5S)-1-[8-(difluoromethyl)quinoxalin-5-yl]-5-methylpiperidin-3-yl]-2-(3-hydroxyazetidin-1-yl)acetamide] | 1000 to 10000 nM
5 | C[C@H]1C[C@@H](NC2CCN(C)C2=O)CN(c2ccc(C(F)(F)F)c3ncccc23)C1 (single isomer, unassigned) [Compound 237] | < 1000 nM
6 | C[C@H]1C[C@@H](NC(=O)COCC2CCCO2)CN(c2ccc(C#N)c3nccnc23)C1 (stereo partly drawn) [Compound 166, N-[(3R,5S)-1-(8-cyanoquinoxalin-5-yl)-5-methylpiperidin-3-yl]-2-(oxolan-2-ylmethoxy)acetamide] | < 1000 nM

The next lines start with the values.

Row | IC50 | SMILES
7 | < 1000 nM | N#Cc1ccc(N2CC(NC(=O)C(N)C3CC3)CC(C(F)(F)F)C2)c2cccnc12 (mixture of isomers) [Compound 486, rac-(R)-2-Amino-N-[(3R,5S)-1-(8-cyano-quinolin-5-yl)-5-trifluoromethyl-piperidin-3-yl]-2-cyclopropyl-acetamide]
8 | 1000 to 10000 nM | Cc1ncc(N2C[C@@H](C)C[C@@H](NC(=O)CCC(=O)N3CCC3)C2)c2cccnc12 [Compound 566, 4-Azetidin-1-yl-N-[(3R,5S)-5-methyl-1-(8-methyl-[1,7]naphthyridin-5-yl)-piperidin-3-yl]-4-oxo-butyramide]
9 | > 10000 nM | CN(C(=O)CN1CCOCC1)[C@H]1C[C@@H](C2CC2)CN(c2ccc(C(F)(F)F)c3ncccc23)C1 (relative stereo) [Compound 337, cis-N-[5-cyclopropyl-1-[8-(trifluoromethyl)quinolin-5-yl]piperidin-3-yl]-N-methyl-2-(morpholin-4-yl)acetamide]
10 | < 1000 nM | CC(C)(C(=O)N[C@@H]1C[C@H](C(F)(F)F)CN(c2ccc(C#N)c3ncccc23)C1)N1CCCCC1 [Compound 576, N-[(3R,5S)-1-(8-Cyano-quinolin-5-yl)-5-trifluoromethyl-piperidin-3-yl]-2-piperidin-1-yl-isobutyramide]
11 | 1000 to 10000 nM | C[C@H]1C[C@@H](N)CN(c2ncc(F)c3nccnc23)C1 [Compound 459, (3R,5S)-1-(8-Fluoro-pyrido[3,4-b]pyrazin-5-yl)-5-methyl-piperidin-3-ylamine hydrochloride]
12 | < 1000 nM | CN(C)CCNC(=O)N1CCN(c2ccc(C#N)c3nccnc23)CC1 [Compound 463, 4-(8-Cyano-quinoxalin-5-yl)-piperazine-1-carboxylic Acid (2-dimethylamino-ethyl)-amide]
